Experimental data from patent US20220073554A1, “LINCOSAMIDE ANTIBIOTICS AND USES THEREOF” (President and Fellows of Harvard College, priority 2017, published 2022).
Values after ≈ are worked out from the molar mass of the structure shown. Read-outs that look alike come from different tables or passages of the source.

Tests used:
Type in all cases: cell-based
P. aeruginosa ATCC 27853 = experiment: MIC against P. aeruginosa ATCC 27853; conditions: Pseudomonas aeruginosa, ATCC27853
E. coli MP-9 ΔTolC = experiment: MIC against E. coli MP-9 ΔTolC; conditions: Escherichia coli
E. coli ATCC 25922 = experiment: MIC against E. coli ATCC 25922; conditions: Escherichia coli, ATCC25922
[1] = system: S. aureus MP-513 clinical cErm; experiment: MIC against S. aureus MP-513 clinical cErm; conditions: Staphylococcus aureus
K. pneumoniae ATCC 10031 = experiment: MIC against K. pneumoniae ATCC 10031; conditions: Klebsiella pneumoniae, ATCC10031
S. aureus ATCC 29213 = experiment: MIC against S. aureus ATCC 29213; conditions: Staphylococcus aureus
S. pneumoniae ATCC 49619 = experiment: MIC against S. pneumoniae ATCC 49619; conditions: Streptococcus pneumoniae, ATCC49619
E. faecalis ATCC 29212 = experiment: MIC against E. faecalis ATCC 29212; conditions: Enterococcus faecalis
S. pyogenes ATCC 19615 = experiment: MIC against S. pyogenes ATCC 19615; conditions: Streptococcus pyogenes, ATCC19615; S. pyogenes ATCC 19615; read-out: MIC
S. aureus BAA 977 iErmA = experiment: MIC against S. aureus BAA 977 iErmA; conditions: Staphylococcus aureus, BAA977
[2] = system: E. coli MP-74 LptD mutant; experiment: MIC against E. coli MP-74 LptD mutant; conditions: Escherichia coli
H. influenzae ATCC 49247 = experiment: MIC against H. influenzae ATCC 49247; conditions: Haemophilus influenzae, ATCC49247
[3] = system: S. aureus MP-549 msr(a) USA 300; experiment: MIC against S. aureus MP-549 msr(a) USA 300; conditions: Staphylococcus aureus, USA300, S. aureus MP-549 msr(a) USA 300
C. difficile BAA 1805 = experiment: MIC against C. difficile BAA 1805; conditions: Clostridioides difficile, BAA1805
E. coli ATCC 15922 = experiment: MIC against E. coli ATCC 15922; conditions: Escherichia coli, ATCC15922; E. coli ATCC 15922; read-out: MIC
[4] = system: S. pyogenes MMX 946 Macrolide-Resistant; experiment: MIC against S. pyogenes MMX 946 Macrolide-Resistant; conditions: Streptococcus pyogenes; S. pyogenes MMX 946 Macrolide-Resistant (MacRes); read-out: MIC
[5] = system: S. pneumoniae MMX 3031 cMefA; experiment: MIC against S. pneumoniae MMX 3031 cMefA; conditions: Streptococcus pneumoniae, MMX3031CMEFA
S. aureus MMX 3035 cErmA = experiment: MIC against S. aureus MMX 3035 cErmA; conditions: Staphylococcus aureus, MMX3035CERMA; S. aureus MMX 3035 cErmA; read-out: MIC
[6] = system: E. faecalis MMX 847 Macrolide-Resistant; experiment: MIC against E. faecalis MMX 847 Macrolide-Resistant; conditions: Enterococcus faecalis; E. faecalis MMX 847 Macrolide-Resistant (MacRes); read-out: MIC
[7] = S. pneumoniae ATCC 49619, read-out: MIC
[8] = ATCC29213, S. aureus ATCC 29213, read-out: MIC
[9] = H. influenzae ATCC 49247, read-out: MIC
[10] = E. coli ATCC 25922, read-out: MIC

Compound: C=CCOC(=O)N1CCO[C@@H]2[C@H](CN[C@@H]2C(=O)N[C@H]([C@H](C)Cl)[C@H]2OC(SC)[C@H](O)[C@H](O)C2O)C1 (stereo partly drawn) [FSA-503073]
- MIC (P. aeruginosa ATCC 27853): > 64 µg/mL
- MIC (E. coli MP-9 ΔTolC): > 64 µg/mL
- MIC (E. coli ATCC 25922): > 64 µg/mL
- MIC [1]: > 64 µg/mL
- MIC (K. pneumoniae ATCC 10031): > 64 µg/mL

Compound: CSC1O[C@H]([C@H](NC(=O)[C@H]2NC[C@@H]3CN(Cc4ccc(N)nc4)CCO[C@H]32)[C@H](C)Cl)C(O)[C@@H](O)[C@H]1O (stereo partly drawn) [FSA-504050]
- MIC (P. aeruginosa ATCC 27853): > 64 µg/mL
- MIC (E. coli MP-9 ΔTolC): > 64 µg/mL
- MIC (E. coli ATCC 25922): > 64 µg/mL
- MIC [1]: > 64 µg/mL
- MIC (K. pneumoniae ATCC 10031): > 64 µg/mL

Compound: CSC1O[C@H]([C@H](NC(=O)[C@H]2NC[C@@H]3CN(C(=N)N)CCO[C@H]32)[C@H](C)Cl)C(O)[C@@H](O)[C@H]1O (stereo partly drawn) [FSA-504057]
- MIC (S. aureus ATCC 29213; ATCC29213): > 64 µg/mL
- MIC (P. aeruginosa ATCC 27853): > 64 µg/mL
- MIC (E. coli MP-9 ΔTolC): > 64 µg/mL
- MIC (E. coli ATCC 25922): > 64 µg/mL
- MIC [1]: > 64 µg/mL
- MIC (K. pneumoniae ATCC 10031): > 64 µg/mL

Compound: CSC1O[C@H]([C@H](NC(=O)[C@H]2NC[C@@H]3CC(c4ccc(-c5ccccc5)cc4)=CCO[C@H]32)[C@H](C)Cl)C(O)[C@@H](O)[C@H]1O (stereo partly drawn) [FSA-510001]
- MIC (S. pneumoniae ATCC 49619; [7]): 4 µg/mL (≈ 6.79 µM)
- MIC (S. aureus ATCC 29213; [8]): 2 µg/mL (≈ 3.39 µM)
- MIC (E. faecalis ATCC 29212; ATCC29212): 8 µg/mL (≈ 13.6 µM)
- MIC (S. pyogenes ATCC 19615): 2 µg/mL (≈ 3.39 µM)
- MIC (E. coli MP-9 ΔTolC): > 64 µg/mL
- MIC (E. coli ATCC 25922): > 64 µg/mL
- MIC (S. aureus BAA 977 iErmA): 2 µg/mL (≈ 3.39 µM)
- MIC (K. pneumoniae ATCC 10031): > 64 µg/mL
- MIC [2]: 8 µg/mL (≈ 13.6 µM)

Compound: CSC1O[C@H]([C@H](NC(=O)[C@H]2NC[C@@H]3CC(N)CCO[C@H]32)[C@H](C)Cl)C(O)[C@@H](O)[C@H]1O (stereo partly drawn) [FSA-510012]
- MIC (S. pneumoniae ATCC 49619): > 64 µg/mL
- MIC (S. aureus ATCC 29213; ATCC29213): > 64 µg/mL
- MIC (E. faecalis ATCC 29212; ATCC29212): > 64 µg/mL
- MIC (H. influenzae ATCC 49247): > 64 µg/mL
- MIC [3]: > 64 µg/mL
- MIC (E. coli MP-9 ΔTolC): > 64 µg/mL
- MIC (E. coli ATCC 25922): > 64 µg/mL
- MIC (S. aureus BAA 977 iErmA): > 64 µg/mL
- MIC (K. pneumoniae ATCC 10031): > 64 µg/mL
- MIC (C. difficile BAA 1805): > 64 µg/mL
- MIC [2]: > 64 µg/mL

Compound: CNC1CCO[C@@H]2[C@H](CN[C@@H]2C(=O)N[C@H]([C@H](C)Cl)[C@H]2OC(SC)[C@H](O)[C@H](O)C2O)C1 (stereo partly drawn) [FSA-510065]
- MIC (S. pneumoniae ATCC 49619): > 64 µg/mL
- MIC (S. aureus ATCC 29213; ATCC29213): > 64 µg/mL
- MIC (E. faecalis ATCC 29212; ATCC29212): > 64 µg/mL
- MIC (H. influenzae ATCC 49247): > 64 µg/mL
- MIC [3]: > 64 µg/mL
- MIC (E. coli MP-9 ΔTolC): > 64 µg/mL
- MIC (E. coli ATCC 25922): > 64 µg/mL
- MIC (S. aureus BAA 977 iErmA): > 64 µg/mL
- MIC (K. pneumoniae ATCC 10031): > 64 µg/mL
- MIC (C. difficile BAA 1805): > 64 µg/mL
- MIC [2]: > 64 µg/mL

Compound: COc1ccc(C2CCO[C@@H]3[C@H](CN[C@@H]3C(=O)N[C@H]([C@H](C)Cl)[C@H]3OC(SC)[C@H](O)[C@H](O)C3O)C2)cc1 (stereo partly drawn) [FSA-511045]
- MIC (E. coli ATCC 15922): > 64 µg/mL
- MIC (S. pneumoniae ATCC 49619; [7]): ≤ 0.06 µg/mL
- MIC (S. aureus ATCC 29213; [8]): 0.3 µg/mL (≈ 0.55 µM)
- MIC (E. faecalis ATCC 29212; ATCC29212, read-out: MIC): 1 µg/mL (≈ 1.83 µM)
- MIC (S. pyogenes ATCC 19615): ≤ 0.06 µg/mL
- MIC (E. coli MP-9 ΔTolC): 8 µg/mL (≈ 14.7 µM)
- MIC [2]: 37 µg/mL (≈ 67.9 µM)

Compound: CSC1O[C@H]([C@H](NC(=O)[C@H]2NC[C@@H]3C=C(c4cccc(F)c4)CCO[C@@H]23)[C@H](C)Cl)C(O)[C@@H](O)[C@H]1O (stereo partly drawn) [FSA-511071]
- MIC (S. aureus ATCC 29213; [8]): 2 µg/mL (≈ 3.77 µM)
- MIC (E. faecalis ATCC 29212; ATCC29212, read-out: MIC): 4 µg/mL (≈ 7.53 µM)
- MIC [4]: > 64 µg/mL
- MIC (H. influenzae ATCC 49247; [9]): > 64 µg/mL
- MIC (S. pyogenes ATCC 19615): 0.5 µg/mL (≈ 0.942 µM)
- MIC [3]: 1 µg/mL (≈ 1.88 µM)
- MIC (E. coli ATCC 25922; [10]): > 64 µg/mL
- MIC [5]: 0.5 µg/mL (≈ 0.942 µM)
- MIC (S. aureus BAA 977 iErmA): 2 µg/mL (≈ 3.77 µM)
- MIC (S. aureus MMX 3035 cErmA): > 64 µg/mL
- MIC [6]: > 64 µg/mL

Compound: CSC1O[C@H]([C@H](NC(=O)[C@H]2NC[C@@H]3C=C(c4ccccc4F)CCO[C@@H]23)[C@H](C)Cl)C(O)[C@@H](O)[C@H]1O (stereo partly drawn) [FSA-511073]
- MIC (S. aureus ATCC 29213; [8]): 1 µg/mL (≈ 1.88 µM)
- MIC (E. faecalis ATCC 29212; ATCC29212, read-out: MIC): 4 µg/mL (≈ 7.53 µM)
- MIC [4]: > 64 µg/mL
- MIC (H. influenzae ATCC 49247; [9]): > 64 µg/mL
- MIC [3]: 1 µg/mL (≈ 1.88 µM)
- MIC (E. coli ATCC 25922; [10]): > 64 µg/mL
- MIC [5]: 12 µg/mL (≈ 22.6 µM)
- MIC (S. aureus BAA 977 iErmA): 1 µg/mL (≈ 1.88 µM)
- MIC (S. aureus MMX 3035 cErmA): > 64 µg/mL
- MIC [6]: > 64 µg/mL

Compound: CSC1O[C@H]([C@H](NC(=O)[C@H]2NC[C@@H]3C[C@@H](c4ccc(C#N)cc4)CCO[C@H]32)[C@H](C)Cl)C(O)[C@@H](O)[C@H]1O (stereo partly drawn) [FSA-512081a]
- MIC [5]: ≤ 0.06 µg/mL
- MIC (S. aureus BAA 977 iErmA): 1 µg/mL (≈ 1.85 µM)

Compound: CSC1O[C@H]([C@H](NC(=O)[C@H]2NC[C@@H]3C[C@H](c4ccc(C#N)cc4)CCO[C@H]32)[C@H](C)Cl)C(O)[C@@H](O)[C@H]1O (stereo partly drawn) [FSA-512081b]
- MIC (S. pneumoniae ATCC 49619; [7]): ≤ 0.06 µg/mL
- MIC (E. faecalis ATCC 29212; ATCC29212, read-out: MIC): 1 µg/mL (≈ 1.85 µM)
- MIC (S. pyogenes ATCC 19615): ≤ 0.06 µg/mL
- MIC [3]: 1 µg/mL (≈ 1.85 µM)
- MIC (E. coli MP-9 ΔTolC): 8 µg/mL (≈ 14.8 µM)
- MIC (S. aureus BAA 977 iErmA): 1 µg/mL (≈ 1.85 µM)
- MIC [2]: 37 µg/mL (≈ 68.5 µM)
